Assays:
[1] = test system: Transglutaminase 1 (TGM1); assay: RT-qPCR expression of TGM1 in NHEK; assay type: cell-based, human; details: 24 h, CaCl2 1.5 mM
Procedure: (§1) The potential effects of a hydroethanolic extract of Schinus molle obtained in accordance with Example 2 on skin hydration and barrier function were studied in a model of normal human epidermal keratinocytes (NHEKs) by analysing the expression profile of genes specific to the differentiation of keratinocytes and lipid synthesis by an RT-qPCR (reverse transcription quantitative polymerase chain reaction) method. […]
(§2) The expression of the markers was assessed by RT-qPCR on the mRNAs (messenger RNAs) extracted from the cell layers of each treatment (the replicates were pooled before the RNA extraction).
(§3) The analysis of the expression of the genes was performed with n=2 with the aid of 2 “marker quantitative PCR arrays” containing 16 genes, including 2 housekeeping (HK) genes, dedicated to research and adapted to the screening format (mQPA-NHEK-BARRIER-16, product by BIOalternatives®).
(§4) The incorporation of fluorescence in the amplified DNA is measured continuously during the course of the PCR cycles. These measurements make it possible to obtain intensity curves of the fluorescence depending on the PCR cycles and to thus evaluate a value of relative expression (RE) for each marker. The number of cycles is determined on the basis of “exit” points of the fluorescence curves. […]

[2] = test system: Fatty acid synthase (FASN); assay: RT-qPCR expression of FASN in NHEK; assay type: cell-based, human; details: 24 h, CaCl2 1.5 mM
Procedure: (§5) The potential effects of a hydroethanolic extract of Schinus molle obtained in accordance with Example 2 on skin hydration and barrier function were studied in a model of normal human epidermal keratinocytes (NHEKs) by analysing the expression profile of genes specific to the differentiation of keratinocytes and lipid synthesis by an RT-qPCR (reverse transcription quantitative polymerase chain reaction) method.
(§6) • Cell type: 3rd passage NHEKs • Culture conditions: 37° C., 5% CO2 • Culture medium: keratinocyte SFM (serum free medium) supplemented with • epidermal growth factor (EGF) 0.25 ng/ml • pituitary extract (PE) 25 μg/ml • gentamicin 25 μg/ml • Test medium: keratinocyte SFM supplemented with gentamicin 25 μg/ml Tested Compounds
(§7) The normal human epidermal keratinocytes (NHEKs) were seeded and cultivated in culture medium for 24 hours. […] All the conditions were performed with n=3.
as §2, §3
(§8) The incorporation of fluorescence in the amplified DNA is measured continuously during the course of the PCR cycles. These measurements make it possible to obtain intensity curves of the fluorescence depending on the PCR cycles and to thus evaluate a value of relative expression (RE) for each marker. The number of cycles is determined on the basis of “exit” points of the fluorescence curves. For the same analysed marker, the later a sample exits (appeared late, after a number of increased cycles), the lower is the initial number of copies of the mRNA.
(§9) The RE (relative expression) value is expressed in arbitrary units (AU) in accordance with the following formula: (½^number of cycles)×10^6 […]

[3] = test system: LAG1 homolog, ceramide synthase 6 (LASS6); assay: RT-qPCR expression of LASS6 in NHEK; assay type: cell-based, human; details: 24 h, CaCl2 1.5 mM
Procedure: as §5, §6, §7, §2, §3, §8, §9

[4] = test system: UDP-glucose ceramide glucosyltransferase (UGCG); assay: RT-qPCR expression of UGCG in NHEK; assay type: cell-based, human; details: 24 h, CaCl2 1.5 mM
Procedure: as §5, §6, §7, §2, §3, §8, §9

[5] = test system: Serine palmitoyltransferase, long chain base subunit 1 (SPTLC1); assay: RT-qPCR expression of SPTLC1 in NHEK; assay type: cell-based, human; details: 24 h, CaCl2 1.5 mM
Procedure: as §5, §6, §7, §2, §3, §8, §9

[6] = test system: Glyceraldehyde-3-phosphate dehydrogenase (GAPDH); details: NHEK, 24 h, CaCl2 1.5 mM
Procedure: as §5, §6, §7, §2, §3, §8, §9

[7] = test system: Glucosidase, beta; acid (GBA); assay: RT-qPCR expression of GBA in NHEK; assay type: cell-based, human; details: 24 h, CaCl2 1.5 mM
Procedure: as §5, §6, §7, §2, §3, §8, §9

[8] = test system: Sulfotransferase family, cytosolic, 2B, member 1 (SULT2B1); assay: RT-qPCR expression of SULT2B1 in NHEK; assay type: cell-based, human; details: 24 h, CaCl2 1.5 mM
Procedure: as §1, §2, §3, §4

Involucrin (IVL) = assay: RT-qPCR expression of IVL in NHEK; assay type: cell-based, human; details: 24 h, CaCl2 1.5 mM
Procedure: as §1, §2, §3, §4

[9] = test system: Hyaluronan synthase 3 (HAS3); assay: RT-qPCR expression of HAS3 in NHEK; assay type: cell-based, human; details: 24 h, CaCl2 1.5 mM
Procedure: as §5, §6, §7, §2, §3, §8, §9

Filaggrin (FLG) = assay: RT-qPCR expression of FLG in NHEK; assay type: cell-based, human; details: 24 h, CaCl2 1.5 mM
Procedure: as §1, §2, §3, §4

[10] = test system: Acyl-CoA synthetase short-chain family member 2 (ACSS2); assay: RT-qPCR expression of ACSS2 in NHEK; assay type: cell-based, human; details: 24 h, CaCl2 1.5 mM
Procedure: as §5, §6, §7, §2, §3, §8, §9

[11] = test system: Arachidonate 12-lipoxygenase (ALOX12); assay: RT-qPCR expression of ALOX12 in NHEK; assay type: cell-based, human; details: 24 h, CaCl2 1.5 mM
Procedure: as §1, §2, §3, §4

Aquaporin 3 (AQP3) = assay: RT-qPCR expression of AQP3 in NHEK; assay type: cell-based, human; details: 24 h, CaCl2 1.5 mM
Procedure: as §5, §6, §7, §2, §3, §8, §9

Claudin 1 (CLDN1) = assay: RT-qPCR expression of CLDN1 in NHEK; assay type: cell-based, human; details: 24 h, CaCl2 1.5 mM
Procedure: as §5, §6, §7, §2, §3, §8, §9

[12] = test system: Ribosomal protein S28 (RPS28); assay: RT-qPCR expression of RPS28 (housekeeping) in NHEK; assay type: cell-based, human; details: 24 h, CaCl2 1.5 mM
Procedure: as §5, §6, §7, §2, §3, §8, §9

[13] = test system: Sphingomyelin phosphodiesterase 1, acid lysosomal (SMPD1); assay: RT-qPCR expression of SMPD1 in NHEK; assay type: cell-based, human; details: 24 h, CaCl2 1.5 mM
Procedure: as §5, §6, §7, §2, §3, §8, §9

[Ca+2].[Cl-].[Cl-] [CaCl2, calcium chloride]
TGM1 expression, % Control (GAPDH) [1]: 274 % Control | TGM1 expression, % Control (RPS28) [1]: 285 % Control | FASN expression, % Control (GAPDH) [2]: 105 % Control | FASN expression, % Control (RPS28) [2]: 109 % Control | FASN expression, % Control (mean HK) [2]: 106 % Control | LASS6 expression, % Control (GAPDH) [3]: 103 % Control | LASS6 expression, % Control (RPS28) [3]: 107 % Control | LASS6 expression, % Control (mean HK) [3]: 104 % Control | UGCG expression, % Control (GAPDH) [4]: 118 % Control | UGCG expression, % Control (RPS28) [4]: 123 % Control | UGCG expression, % Control (mean HK) [4]: 119 % Control | SPTLC1 expression, % Control (GAPDH) [5]: 95 % Control | SPTLC1 expression, % Control (RPS28) [5]: 99 % Control | SPTLC1 expression, % Control (mean HK) [5]: 96 % Control | GAPDH expression, % Control (GAPDH) [6]: 100 % Control | GAPDH expression, % Control (RPS28) [6]: 104 % Control | GAPDH expression, % Control (mean HK) [6]: 101 % Control | GBA expression, % Control (GAPDH) [7]: 123 % Control | GBA expression, % Control (RPS28) [7]: 128 % Control | GBA expression, % Control (mean HK) [7]: 124 % Control | SULT2B1 expression, % Control (GAPDH) [8]: 244 % Control | SULT2B1 expression, % Control (RPS28) [8]: 254 % Control | IVL expression, % Control (GAPDH) (Involucrin (IVL)): 175 % Control | IVL expression, % Control (RPS28) (Involucrin (IVL)): 183 % Control | HAS3 expression, % Control (GAPDH) [9]: 108 % Control | HAS3 expression, % Control (RPS28) [9]: 112 % Control | HAS3 expression, % Control (mean HK) [9]: 108 % Control | FLG expression, % Control (GAPDH) (Filaggrin (FLG)): 151 % Control | FLG expression, % Control (RPS28) (Filaggrin (FLG)): 157 % Control | ACSS2 expression, % Control (GAPDH) [10]: 127 % Control | ACSS2 expression, % Control (RPS28) [10]: 132 % Control | ACSS2 expression, % Control (mean HK) [10]: 128 % Control | ALOX12 expression, % Control (GAPDH) [11]: 151 % Control | ALOX12 expression, % Control (RPS28) [11]: 158 % Control | AQP3 expression, % Control (GAPDH) (Aquaporin 3 (AQP3)): 110 % Control | AQP3 expression, % Control (RPS28) (Aquaporin 3 (AQP3)): 115 % Control | AQP3 expression, % Control (mean HK) (Aquaporin 3 (AQP3)): 111 % Control | CLDN1 expression, % Control (GAPDH) (Claudin 1 (CLDN1)): 145 % Control | CLDN1 expression, % Control (RPS28) (Claudin 1 (CLDN1)): 152 % Control | CLDN1 expression, % Control (mean HK) (Claudin 1 (CLDN1)): 147 % Control | RPS28 expression, % Control (GAPDH) [12]: 96 % Control | RPS28 expression, % Control (RPS28) [12]: 100 % Control | RPS28 expression, % Control (mean HK) [12]: 97 % Control | SMPD1 expression, % Control (GAPDH) [13]: 108 % Control | SMPD1 expression, % Control (RPS28) [13]: 113 % Control | SMPD1 expression, % Control (mean HK) [13]: 109 % Control

Source: patent publication US11045669B2, “Hydroalcoholic extract of Schinus molle, cosmetic compositions comprising the same and cosmetic uses thereof” (ISP INVESTMENTS LLC, priority 2015, dated 2021)
